Data from patent US8110703B2, “Retinoid derivative and pharmaceutical composition and use thereof” (Anhui Medical University, priority 2008, dated 2012).
Marks after values point to notes of the source that are not given here.

Columns and labels:
Format in all cases: cell-based
[1] = system: liver cancer HepG2 cells; test: MTT cell growth and proliferation experiment, HepG2; parameters: key to Inhibition Rate: (control OD570 − test OD570)/control OD570, as fraction; conditions: for Inhibition Rate: fraction
Method: 1.1 Reagents 12 retinoic acid derivatives with the final concentrations of 1 ug/ml, 5 ug/ml and 10 ug/ml are synthesized by the Pharmaceutical College of Anhui Medical University using DMSO and anhydrous ethanol, separately packaged for storage at −20° C. and kept out of the light when used, and the final concentration of DMSO is less than 0.1%. MTT is purchased from Sigma Corp. The Coulter DNA detection kit is presented by the Central Lab of Anhui Provincial Hospital. AFP and γ-GT are provided by the Clinical Lab of No. 105 Hospital of PLA. Apoptosis-Hoechst staining kit is purchased from Beyotime Company.
1.2 Cell Culture A549, and HpeG2 cells are stored by our lab. Cell growth condition: DMEM (from GIBICO Company) culture solution is added with 10% of calf serum (purchased from the Hangzhou Sijiqing Biological Engineering Material Co., Ltd.) to culture in a cell culture incubator (37° C., 5% CO2) with saturated humidity.
1.3 Cell Growth and Proliferation Experiments MTT process is used. Cells in the logarithmic phase are picked and seeded on a 96-hole culture board with a cell concentration of 5×10^7/L. Each hole of the board is 200 ul. The next day after the adherence, the original solution is discarded, and the culture solution is added. The cells are divided into 1 ug/ml retinoic acid derivative groups, 5 ug/ml retinoic acid derivative groups, 10 ug/ml retinoic acid derivative groups, blank control groups, cell control groups, solvent control groups (1‰ DMSO and anhydrous ethanol) (17 in total) according to the concentrations thereof, incubated for 3d, added with MTT (5 g/L) of 20 ul/hole for incubation at 37° C. for 4 h. The original solution is carefully discarded and dried, and DMSO of 20 ul/hole is added to dissolve crystals, followed by vibrating for 10 min and determining the OD value at 570 nm. Each concentration is corresponding to 5 holes, and each group calculates the average of 3 experiments to calculate the inhibition rate to the cell growth according to the optical density (OD) average of each hole in each group and the following equation: inhibition rate %=(control hole OD570−experimental hole OD570)/control hole OD5700*100%. The process above is repeated for three times. The second experiment takes the maximum concentration (10 […]) for culture respectively for 1, 2, 3 and 7 days and repeat for three times.

[2] = system: A549 cells; test: Differentiation index: CEA secretory volume of A549 cells; conditions: A549 culture supernatant, 10 ug/ml, 3 d
Method: 1.6 Detection of Differentiation Index The cultured A549 cells are randomly divided into 6 10 μg/ml drug groups, cell control groups, solvent control groups (DMSO and ethanol) and 10 μg/ml fenretinide control groups (11 in total). The control groups and drug groups are cultured for 3 days to collect respective 3 tubes of cell culture solutions which are centrifugated at a speed of 4000 r/min for 5 min to take the supernatant and detect the CEA content of the kit by using enzyme kinetics and CEA detection.

[3] = system: A549 cells; test: Cell cycle and apoptosis by flow cytometry, A549; conditions: A549, 10 μg/ml, 3 days
Method: 1.4 Detection of Cell Cycle and Apoptosis by Flow Cytometry A549 cells in the logarithmic phase are collected, regulated with the concentrations thereof to 8×10^7/L, inoculated in a 6-hole board, cultured in an incubator (37° C. and 5% CO2). After the cells are adhered, the culture solution is discarded, and a culture solution having drugs with the corresponding concentrations is added and divided into 10 μg/ml drug groups, 10 μg/ml fenretinide groups, cell control groups, solvent control groups (1‰ DMSO and anhydrous ethanol) (11 in total). After 3 days, each group of cells is normally digested, collected, blown into single cell suspension, washed by cold PBS twice, and re-suspend by 10 μl PBS. Fixing and member breaking agents and a PI staining solution are added according to the Coulter DNA detection kit and reacted with one another at the room temperature and out of light for 30 min for machine detection. Each sample detects 10000 cells and repeats for three times, and the data are analyzed by Analysis software for the ratio during the G0-G1, S and G2-M periods and the ratio of apoptotic cells.

[4] = system: HepG2 cells; test: Cell cycle and apoptosis by flow cytometry, HepG2; conditions: HepG2, flow cytometry
[5] = system: NB4 cells; test: Cell cycle analysis by flow cytometer, NB4; parameters: S %: dose or concentration left out as unconfirmed; conditions: 72 h
Method: (§1) Retinoic acid derivatives and fenretinide are prepared as a storage solution of 10 mg/mL by anhydrous ethanol and stored at […] and kept out of light.
(§2) NB4 cells and K562 cells are inoculated with an initial concentration of 2*10^5/ml in the RPMI1640 culture solution having 10% of calf serum (FBS), 100 u/ml of penicillin, 100 Lg/ml of streptomycin and 2 mmol/L of glutamine for suspension culture (37° C., 5% CO2). Change the solution every 2-3 days.
(§3) For the cells above acted by the retinoic acid derivatives and fenretinide ([…]) for 72 h, about 10^6 of them are collected, washed by PBS twice, fixed by 70% of cold ethanol over 24 h, washed by PBS twice, added with 5 ug/ml of propidium iodide for staining and detected by a flow cytometer from which the data are analyzed and processed by the multi-cycle software.

[6] = system: K562 cells; test: Cell cycle analysis by flow cytometer, K562; parameters: S %: dose or concentration left out as unconfirmed; conditions: 72 h
Method: as §1, §2, §3

[7] = HepG2, MTT time gradient, in DMSO, 1 d, concentration not given
[8] = HepG2, MTT time gradient, in DMSO, 2 d, concentration not given
[9] = HepG2, MTT time gradient, in DMSO, 3 d, concentration not given
[10] = HepG2, MTT time gradient, in DMSO, 7 d, concentration not given
[11] = HepG2, MTT time gradient, in ethanol, 1 d, concentration not given
[12] = HepG2, MTT time gradient, in ethanol, 2 d, concentration not given
[13] = HepG2, MTT time gradient, in ethanol, 3 d, concentration not given
[14] = HepG2, MTT, 3 d, Table 3 control drug in DMSO, concentration not given
[15] = HepG2, MTT, 3 d, Table 3 control drug in ethanol, concentration not given
[16] = HepG2, Table 5 repeat MTT, 3 days, DMSO, concentration not given
[17] = HepG2, Table 5 repeat MTT, 3 days, ethanol, concentration not given
[18] = HepG2, MTT time gradient, 10 ug/ml, 1 d
[19] = HepG2, MTT time gradient, 10 ug/ml, 2 d
[20] = HepG2, MTT time gradient, 10 ug/ml, 3 d
[21] = HepG2, MTT time gradient, 10 ug/ml, 7 d
[22] = HepG2, Table 5 repeat MTT, 10 ug/ml, 3 days, DMSO

CC1=C(/C=C/C(C)=C/C=C/C(C)=C/C(=O)Nc2ccc(O)cc2)C(C)(C)CCC1 [Fenretinide, reference compound]
OD Value (x ± s) [1, 7]: 1.61 ± 0.16
Inhibition Rate [1, 7]: 0.09
OD Value (x ± s) [1, 8]: 1.37 ± 0.07
Inhibition Rate [1, 8]: 0.19
OD Value (x ± s) [1, 9]: 1.07 ± 0.20
Inhibition Rate [1, 9]: 0.13
OD Value (x ± s) [1, 10]: 1.17 ± 0.06
Inhibition Rate [1, 10]: 0.14
OD Value (x ± s) [1, 11]: 1.67 ± 0.05
Inhibition Rate [1, 11]: 0.05
OD Value (x ± s) [1, 12]: 1.31 ± 0.09
Inhibition Rate [1, 12]: 0.22
OD Value (x ± s) [1, 13]: 1.06 ± 0.09
Inhibition Rate [1, 13]: 0.14
OD Value (x ± s) [1, 14]: 1.27 ± 0.25
Inhibition Rate [1, 14]: 0.25
OD Value (x ± s) [1, 15]: 1.28 ± 0.21
Inhibition Rate [1, 15]: 0.24
OD Value (x ± s) [1, 16]: 1.469 ± 0.078
Inhibition Rate [1, 16]: 0.322*
OD Value (x ± s) [1, 17]: 1.422 ± 0.123
Inhibition Rate [1, 17]: 0.343*
CEA ([2]; DMSO): 4.5 µg/L
CEA ([2]; ethanol): 4.3 µg/L
Apoptosis Rate (%) ([3]; in DMSO): 29.3%
G0-G1 (%) ([3]; in DMSO): 47.2%
G2-M (%) ([3]; in DMSO): 2.09%
S % ([3]; in DMSO): 22.2%
Apoptosis Rate (%) ([3]; in ethanol): 14.0%
G0-G1 (%) ([3]; in ethanol): 59.3%
G2-M (%) ([3]; in ethanol): 2.63%
S % ([3]; in ethanol): 24.5%
Apoptosis Rate (%) ([4]; in DMSO): 5.71%
G0-G1 (%) ([4]; in DMSO): 67.3%
G2-M (%) ([4]; in DMSO): 7.64%
S % ([4]; in DMSO): 19.8%
Apoptosis Rate (%) ([4]; in ethanol): 10.6%
G0-G1 (%) ([4]; in ethanol): 60.0%
G2-M (%) ([4]; in ethanol): 5.69%
S % ([4]; in ethanol): 24.1%
G1 % [5]: 63.25%
G2 % [5]: 4.03%
S % [5]: 33.72%
G1 % [6]: 33.5%
G2 % [6]: 9.0%
S % [6]: 57.5%

CC1=C(/C=C/C(C)=C/C=C/C(C)=C/C(=O)Oc2ccccc2C(F)(F)F)C(C)(C)CCC1 [Example 2a-03, (2-trifluoromethylphenyl)-(all-trans)-3,7-dimethyl-9-(2,6,6-trimethyl-1-cyclohexen-1-yl)-2,4,6,8-nonatetraenoate]
OD Value (x ± s) ([1]; HepG2, MTT OD 570 nm, 1 ug/ml, 3 d, solvent not given): 1.32 ± 0.50
OD Value (x ± s) ([1]; HepG2, MTT OD 570 nm, 5 ug/ml, 3 d, solvent not given): 1.32 ± 0.56
OD Value (x ± s) ([1]; HepG2, MTT OD 570 nm, 10 ug/ml, 3 d, solvent not given): 0.98 ± 0.19
OD Value (x ± s) [1, 18]: 1.61 ± 0.14
Inhibition Rate [1, 18]: 0.07
OD Value (x ± s) [1, 19]: 1.55 ± 0.09
Inhibition Rate [1, 19]: 0.08
OD Value (x ± s) [1, 20]: 1.24 ± 0.09
Inhibition Rate [1, 20]: 0.09
OD Value (x ± s) [1, 21]: 0.79 ± 0.08
Inhibition Rate [1, 21]: 0.36
Inhibition Rate ([1]; HepG2, MTT, 1 ug/ml, 3 d, solvent not given): 0.22
Inhibition Rate ([1]; HepG2, MTT, 5 ug/ml, 3 d, solvent not given): 0.23
Inhibition Rate ([1]; HepG2, MTT, 10 ug/ml, 3 d, solvent not given): 0.42
OD Value (x ± s) [1, 22]: 1.847 ± 0.091
Inhibition Rate [1, 22]: 0.468*
CEA ([2]; ethanol): 3.9 µg/L
Apoptosis Rate (%) ([3]; PI flow cytometry): 28.9%
G0-G1 (%) ([3]; PI flow cytometry): 45.7%
G2-M (%) ([3]; PI flow cytometry): 1.01%
S % ([3]; PI flow cytometry): 25.8%
Apoptosis Rate (%) [4]: 16.3* %
G0-G1 (%) [4]: 57.3%
G2-M (%) [4]: 3.40%
S % [4]: 25.5%
G1 % [5]: 65.72%
G2 % [5]: 5.54%
S % [5]: 28.74%
G1 % [6]: 45.1%
G2 % [6]: 7.6%
S % [6]: 47.3%
